Assay results as given in paper PMC6959545 (European journal of medicinal chemistry, 2013).

Assays:
human TRPV1 [1] = biological target: T1, human TRPV1 (Homo sapiens, UniProt Q8NER1); assay: hTRPV1 antagonism of capsaicin; type: cell-based; details: for fold less potent than 12, CAP antagonism: compared with 2-pentyloxy derivative 12; for fold less potent than 11, CAP antagonism: compared with 2-butoxy derivative 11
human TRPV1 [2] = biological target: T1, human TRPV1; assay: hTRPV1 antagonism of pH activation, FLIPR; type: cell-based; details: compound 1 vs lead 2
mice (formalin test) = assay: formalin test in mice, oral administration; type: in vivo

T1 sequence (Q8NER1 whole entry): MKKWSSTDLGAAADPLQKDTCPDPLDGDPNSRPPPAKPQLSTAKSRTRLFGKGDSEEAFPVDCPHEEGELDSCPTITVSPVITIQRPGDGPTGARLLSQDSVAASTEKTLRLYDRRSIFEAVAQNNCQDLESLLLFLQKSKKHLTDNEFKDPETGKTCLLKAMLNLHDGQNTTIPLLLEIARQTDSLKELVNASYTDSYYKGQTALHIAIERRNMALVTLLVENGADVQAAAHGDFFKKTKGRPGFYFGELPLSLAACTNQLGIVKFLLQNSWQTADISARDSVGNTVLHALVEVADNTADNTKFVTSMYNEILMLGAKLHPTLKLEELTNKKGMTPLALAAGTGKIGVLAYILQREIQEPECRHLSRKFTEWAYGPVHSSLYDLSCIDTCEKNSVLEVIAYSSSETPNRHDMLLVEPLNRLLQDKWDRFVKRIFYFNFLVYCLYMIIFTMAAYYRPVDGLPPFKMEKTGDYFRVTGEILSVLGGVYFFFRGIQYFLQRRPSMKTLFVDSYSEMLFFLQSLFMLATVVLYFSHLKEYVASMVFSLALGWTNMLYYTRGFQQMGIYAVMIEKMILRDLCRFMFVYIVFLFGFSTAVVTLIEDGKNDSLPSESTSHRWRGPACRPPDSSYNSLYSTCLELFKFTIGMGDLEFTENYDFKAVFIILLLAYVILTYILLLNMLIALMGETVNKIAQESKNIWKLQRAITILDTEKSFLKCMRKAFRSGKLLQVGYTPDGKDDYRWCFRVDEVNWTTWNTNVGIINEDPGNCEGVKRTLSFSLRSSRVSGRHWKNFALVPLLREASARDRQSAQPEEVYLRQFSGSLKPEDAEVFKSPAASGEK

## CCOCCOc1nc(C(F)(F)F)ccc1CNC(=O)C(C)c1ccc(NS(C)(=O)=O)c(F)c1 (stereo not shown) [Compound 17, N-((2-(2-Ethoxyethoxy)-6-(trifluoromethyl)pyridin-3-yl)methyl)-2-(3-fluoro-4-(methylsulfonamido)phenyl)propanamide]
Human TRPV1 [1]
  fold less potent than 12, CAP antagonism: 70 fold

## CC1CCN(c2nc(C(F)(F)F)ccc2CNC(=O)C(C)c2ccc(NS(C)(=O)=O)c(F)c2)CC1 (stereo not shown) [Compound 1, reference compound]
Human TRPV1 [1]; compound 1 vs lead 2
  fold better than precedent lead 2, CAP antagonism: 150 fold
Human TRPV1 [2]
  fold better than precedent lead 2, pH antagonism: 230 fold

## COCCOc1nc(C(F)(F)F)ccc1CNC(=O)C(C)c1ccc(NS(C)(=O)=O)c(F)c1 (stereo not shown) [Compound 16, N-((2-(2-Methoxyethoxy)-6-(trifluoromethyl)pyridin-3-yl)methyl)-2-(3-fluoro-4-(methylsulfonamido)phenyl)propanamide]
Human TRPV1 [1]
  fold less potent than 11, CAP antagonism: 160 fold

## C/C=C\COc1nc(C(F)(F)F)ccc1CNC(=O)C(C)c1ccc(NS(C)(=O)=O)c(F)c1 (stereo not shown) [Compound 14, (Z)-N-((2-(But-2-en-1-yloxy)-6-(trifluoromethyl)pyridin-3-yl)methyl)-2-(3-fluoro-4-(methylsulfonamido)phenyl)propanamide]
Human TRPV1 [1]
  fold less potent than 11, CAP antagonism: ca. 5 fold

## COCCCOc1nc(C(F)(F)F)ccc1CNC(=O)C(C)c1ccc(NS(C)(=O)=O)c(F)c1 (stereo not shown) [Compound 18, N-((2-(3-Methoxypropoxy)-6-(trifluoromethyl)pyridin-3-yl)methyl)-2-(3-fluoro-4-(methylsulfonamido)phenyl)propanamide]
Human TRPV1 [1]
  fold less potent than 12, CAP antagonism: 22 fold

## CC(C(=O)NCc1ccc(C(F)(F)F)nc1OCc1ccccc1)c1ccc(NS(C)(=O)=O)c(F)c1 (stereo not shown) [Compound 53, N-((2-Benzyloxy-6-(trifluoromethyl)pyridin-3-yl)methyl)-(3-fluoro-4-(methylsulfonamido)phenyl)propanamide]
Mice (formalin test)
  analgesic activity in the formalin test: strong analgesic activity

## CCOCCCOc1nc(C(F)(F)F)ccc1CNC(=O)C(C)c1ccc(NS(C)(=O)=O)c(F)c1 (stereo not shown) [Compound 19, N-((2-(3-Ethoxypropoxy)-6-(trifluoromethyl)pyridin-3-yl)methyl)-2-(3-fluoro-4-(methylsulfonamido)phenyl)propanamide]
Human TRPV1 [1]; compared with 2-hexyloxy derivative 13
  fold less potent than 13, CAP antagonism: 20 fold

## CC/C=C\COc1nc(C(F)(F)F)ccc1CNC(=O)C(C)c1ccc(NS(C)(=O)=O)c(F)c1 (stereo not shown) [Compound 15, (Z)-N-((2-(Pent-2-en-1-yloxy)-6-(trifluoromethyl)pyridin-3-yl)methyl)-2-(3-fluoro-4-(methylsulfonamido)phenyl)propanamide]
Human TRPV1 [1]
  fold less potent than 12, CAP antagonism: ~1.5 fold

## CC(C)COc1nc(C(F)(F)F)ccc1CNC(=O)C(C)c1ccc(NS(C)(=O)=O)c(F)c1 (stereo not shown) [Compound 22, N-((2-Isobutoxy-6-(trifluoromethyl)pyridin-3-yl)methyl)-2-(3-fluoro-4-(methylsulfonamido)phenyl)propanamide]
Mice (formalin test)
  analgesic activity in the formalin test: strong analgesic activity
